pIC50: −log10 of the molar value. Active and inactive are the calls of the source. The rule behind the calls is not given here.
Molecular target: Cathepsin S (Homo sapiens) (UniProt P25774)
Experiment: IC50 of CTSS protease blockers – biochemical, confirmation, dose response (AID 831)
Conditions: purified cathepsin S enzyme activity, fluorescence

Sequence of Cathepsin S (Homo sapiens) (P25774 115-331 limits assumed): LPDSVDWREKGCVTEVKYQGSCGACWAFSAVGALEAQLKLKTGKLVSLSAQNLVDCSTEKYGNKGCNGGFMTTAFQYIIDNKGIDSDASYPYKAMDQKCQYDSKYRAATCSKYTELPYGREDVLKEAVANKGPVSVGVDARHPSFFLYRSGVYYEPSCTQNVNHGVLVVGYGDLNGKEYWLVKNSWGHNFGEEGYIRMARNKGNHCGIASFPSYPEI

Question: With `CCN1CC=C2C(C#N)=C(N)C(C#N)(C#N)C(CCc3ccccc3)C2C1` (centres undefined) as the molecule, how does the pIC50 read?
Answer: 5.18

Question: How did the IC50 turn out when `N#CC1=C(N)Oc2c(sc3ccccc23)C1c1ccco1` (centres undefined) was run?
Answer: > 50 µM (inactive)

Question: `CC1=C(C(=O)Nc2ccc(F)cc2)C(c2cccc(C)c2)n2nc(CCCO)nc2N1` (centres undefined) was tested. Which IC50 did it give?
Answer: > 50 µM (inactive)

Question: `CC(=O)c1c(O)n(C)c(=S)n(-c2ccccc2)c1=O` was tested. Which IC50 did it give?
Answer: > 50 µM (inactive)

Source: PubChem BioAssay AID831 (PCMD, 2007)
